Key:
[1] = test system: tumor cell lines (D54MG, NCI-H460, A549, PC3, EJ1, HCT116, DLD1, SW620, 786-O); test: Combination screen of VX-680, cell viability with Bliss additivism analysis; type: cell-based, human; details: VX-680 with ABT-263 in dose-response; viability 3 days after exposure
Experimental: Cell viability was determined 3 days after exposure to the combination regimens. Synergy or antagonism of drug combinations was determined using the Bliss additivism model of drug-drug interactions (See, Berenbaum, M. C., Cancer Res 35, 269-335 (1981)). The value in excess of Bliss additivism for each dose was determined for all combinations and defined as follows: >15=synergistic, 0-15=no interaction, <−15=antagonistic. These values are expressed in a heatmap using SPOTFIRE® (TIBCO®) data analysis software where synergy is indicated in red, no interaction in gray, and antagonism in blue. […] These values are not applicable for Bliss analysis and were excluded from the heatmap. Compounds tested in combination are shown at the right. The targets/mechanisms of action of each of these agents and the corresponding dose responses for the combination screen is summarized in Table A in EXAMPLE 40.
(§1) Generally, cells were seeded at >90% viability (as determined by trypan blue exclusion) into 96-well plates overnight, treated with compounds or siRNAs for indicated duration, and the overall cell viability was determined by measuring luminescence.
Combined response scores greater than 15 were considered synergistic. […]

[2] = test system: HCT116 cells; test: Aurora inhibitors in combination with ABT-263, cell viability (CellTiter-GLO); type: cell-based, human; details: 1 μM ABT-263, 72 hours; MLN8054 at Aurora A-selective concentrations (<5 μM)
Experimental: 24 hours post-transfection, cells were treated with ABT-263 in dose response, and cell viability was determined 72 hours after the addition of ABT-263. […] MLN8054 (FIG. 9C) or AZD1152 (FIG. 9D) were tested in combination with DMSO or 1 μM ABT-263 in HCT116 cells. Cell viability was determined 72 hours after treatment. […] EJ1 (FIG. 9F) or HCT116 (FIG. 9G) cells were transfected with a luciferase siRNA or the same set of siRNAs against Bcl-2, Bcl-XL, or Mcl-1 siRNAs as in FIG. 9E. 24 hours post-transfection, cells were treated with different amounts of AZD1152. Cell viability was determined 72 hours after exposure to AZD1152. […] Cell viability was determined 72 hours post-transfection. In all figures, cell viability was expressed as the percentage of untransfected, DMSO-treated control cells. The red viability curve represents a synergistic combination.
as §1

`Cc1cc(Nc2cc(N3CCN(C)CC3)nc(Sc3ccc(NC(=O)C4CC4)cc3)n2)[nH]n1` [VX-680, cyclopropane carboxylic acid of {4-[4-(4-methyl-piperazin-1-yl)-6-(5-methyl-2H-pyrazol-3-ylamino)-pyrimidin-2-ylsulphanyl]-phenyl}-amide] was tested, and the “Bliss analysis of cell viability, combination with ABT-263” value [1] was “synergistic (>15=synergistic)”.

In the case of `O=C(O)c1ccc(Nc2ncc3c(n2)-c2ccc(Cl)cc2C(c2c(F)cccc2F)=NC3)cc1` [MLN8054], the “synergy in combination with ABT-263 (cell viability)” value [2] is reported as “no synergy”.

Source: patent US8624027B2, “Combination therapy for treating cancer and diagnostic assays for use therein” (AbbVie Inc., priority 2005, dated 2014)
